Assay results reported in patent publication US11053204B2, “Pyrimidinyloxy benzene derivatives as herbicides” (FMC Corporation, priority 2015, dated 2021).

Tests used:
Type in all cases: in vivo
[1] = system: barnyardgrass (Echinochloa crus-galli); assay: Test B flooded paddy test, plant response rating; conditions: 250 g ai/ha; Flood; scale of 0 to 100 where 0 is no effect and 100 is complete control; 13 to 15 days
Method in brief: (§1)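 Ratings were visual and made relative to untreated controls after 13 to 15 greenhouse days.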

[2] = system: ducksalad (Heteranthera limosa); assay: Test B flooded paddy test, plant response rating; conditions: 250 g ai/ha; Flood; scale of 0 to 100 where 0 is no effect and 100 is complete control; 13 to 15 days
Method in brief: as §1

[3] = system: sedge, umbrella (small-flower umbrella sedge, Cyperus difformis); assay: Test B flooded paddy test, plant response rating; conditions: 250 g ai/ha; Flood; scale of 0 to 100 where 0 is no effect and 100 is complete control; 13 to 15 days
Method in brief: as §1

rice (Oryza sativa) = assay: Test B flooded paddy test, plant response rating; conditions: 250 g ai/ha; Flood; scale of 0 to 100 where 0 is no effect and 100 is complete control; 13 to 15 days
Method in brief: as §1

[4] = system: barnyardgrass (Echinochloa crus-galli); assay: Test A postemergence, visual injury rating; conditions: 0 to 100 scale, 0 is no effect, 100 is complete control, approximately 10 days
Method in brief: (§2)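 Scoring: eye-based comparison with untreated controls, 0 for no effect through 100 for complete control, at about day 10. Treatments: directed soil spray preemergence; foliar spray postemergence on 2–10 cm plants at the one- to two-leaf stage. Medium: loam soil with sand.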

[5] = system: galium (catchweed bedstraw, Galium aparine); assay: Test A postemergence, visual injury rating; conditions: 0 to 100 scale, 0 is no effect, 100 is complete control, approximately 10 days
Method in brief: as §2

[6] = system: pigweed (Amaranthus retroflexus); assay: Test A postemergence, visual injury rating; conditions: 0 to 100 scale, 0 is no effect, 100 is complete control, approximately 10 days
Method in brief: as §2

[7] = system: Italian ryegrass (Lolium multiflorum); assay: Test A postemergence, visual injury rating; conditions: 0 to 100 scale, 0 is no effect, 100 is complete control, approximately 10 days
Method in brief: as §2

[8] = system: wheat (Triticum aestivum); assay: Test A postemergence, visual injury rating; conditions: 0 to 100 scale, 0 is no effect, 100 is complete control, approximately 10 days
Method in brief: as §2

[9] = system: giant foxtail (Setaria faberii); assay: Test A postemergence, visual injury rating; conditions: 0 to 100 scale, 0 is no effect, 100 is complete control, approximately 10 days
Method in brief: as §2

kochia (Kochia scoparia) [10] = assay: Test A postemergence, visual injury rating; conditions: 0 to 100 scale, 0 is no effect, 100 is complete control, approximately 10 days
Method in brief: as §2

[11] = system: blackgrass (Alopecurus myosuroides); assay: Test A postemergence, visual injury rating; conditions: 0 to 100 scale, 0 is no effect, 100 is complete control, approximately 10 days
Method in brief: as §2

corn (Zea mays) = assay: Test A postemergence, visual injury rating; conditions: 0 to 100 scale, 0 is no effect, 100 is complete control, approximately 10 days
Method in brief: as §2

[12] = system: ragweed (common ragweed, Ambrosia elatior); assay: Test A postemergence, visual injury rating; conditions: 0 to 100 scale, 0 is no effect, 100 is complete control, approximately 10 days
Method in brief: as §2

[13] = system: barnyardgrass (Echinochloa crus-galli); assay: Test A preemergence, visual injury rating
Method in brief: as §2

[14] = system: pigweed (Amaranthus retroflexus); assay: Test A preemergence, visual injury rating
Method in brief: as §2

[15] = system: Italian ryegrass (Lolium multiflorum); assay: Test A preemergence, visual injury rating
Method in brief: as §2

[16] = system: giant foxtail (Setaria faberii); assay: Test A preemergence, visual injury rating
Method in brief: as §2

kochia (Kochia scoparia) [17] = assay: Test A preemergence, visual injury rating
Method in brief: as §2

[18] = system: ragweed (common ragweed, Ambrosia elatior); assay: Test A preemergence, visual injury rating
Method in brief: as §2

[19] = 31 g ai/ha, 0 to 100 scale, 0 no effect, 100 complete control
[20] = 125 g ai/ha, 0 to 100 scale (0 no effect, 100 complete control)

SMILES | Plant response rating, Barnyardgrass [1] | Plant response rating, Ducksalad [2] | Plant response rating, Sedge, Umbrella [3] | Plant response rating, Rice (rice (Oryza sativa)) | Barnyardgrass plant response rating ([4]; 31 g ai/ha) | Barnyardgrass plant response rating ([4]; 125 g ai/ha) | Galium plant response rating ([5]; 31 g ai/ha) | Galium plant response rating ([5]; 125 g ai/ha) | Pigweed plant response rating ([6]; 31 g ai/ha) | Pigweed plant response rating ([6]; 125 g ai/ha) | Ryegrass, Italian plant response rating ([7]; 31 g ai/ha) | Ryegrass, Italian plant response rating ([7]; 125 g ai/ha) | Wheat plant response rating ([8]; 31 g ai/ha) | Wheat plant response rating ([8]; 125 g ai/ha) | Foxtail, Giant plant response rating ([9]; 31 g ai/ha) | Foxtail, Giant plant response rating ([9]; 125 g ai/ha) | Kochia plant response rating (kochia (Kochia scoparia) [10]; 31 g ai/ha) | Kochia plant response rating (kochia (Kochia scoparia) [10]; 125 g ai/ha) | Blackgrass plant response rating ([11]; 31 g ai/ha) | Blackgrass plant response rating ([11]; 125 g ai/ha) | other results
CC(=NOC(C)C)c1c(Cl)cccc1Oc1ncc(Cl)cn1 [Compound 104] | 0 | 75 | 75 | 0 | 0 | 0 | 10 | 30 | 10 | 40 | 0 | 0 | 0 | 0 | 0 | 10 | 0 | 10 | 0 | 20 | Corn plant response rating (corn (Zea mays); 31 g ai/ha): 0; Corn plant response rating (corn (Zea mays); 125 g ai/ha): 10; Ragweed plant response rating ([12]; 31 g ai/ha): 0; Ragweed plant response rating ([12]; 125 g ai/ha): 0; Plant response rating, Barnyardgrass [13, 19]: 0; Barnyardgrass plant response rating [13, 20]: 30; Plant response rating, Pigweed [14, 19]: 0; Plant response rating, Pigweed [14, 20]: 40; Plant response rating, Ryegrass, Italian [15, 19]: 0; Plant response rating, Ryegrass, Italian [15, 20]: 0; Plant response rating, Foxtail, Giant [16, 19]: 0; Plant response rating, Foxtail, Giant [16, 20]: 40; Plant response rating, Kochia (kochia (Kochia scoparia) [17]; [19]): 0; Plant response rating, Kochia (kochia (Kochia scoparia) [17]; [20]): 0; Plant response rating, Ragweed [18, 19]: 0; Plant response rating, Ragweed [18, 20]: 0
CC(=NOC(C)C)c1c(Br)cccc1Oc1ncc(Cl)cn1 [Compound 105] | 0 | 40 | 0 | 0 | 0 | 0 | 10 | 20 | 10 | 30 | 0 | 0 | 0 | 0 | 0 | 0 | 0 | 10 | 0 | 10 | Corn plant response rating (corn (Zea mays); 31 g ai/ha): 0; Corn plant response rating (corn (Zea mays); 125 g ai/ha): 0; Ragweed plant response rating ([12]; 31 g ai/ha): 0; Ragweed plant response rating ([12]; 125 g ai/ha): 0; Plant response rating, Barnyardgrass [13, 19]: 0; Barnyardgrass plant response rating [13, 20]: 30; Plant response rating, Pigweed [14, 19]: 0; Plant response rating, Pigweed [14, 20]: 20; Plant response rating, Ryegrass, Italian [15, 19]: 0; Plant response rating, Ryegrass, Italian [15, 20]: 0; Plant response rating, Foxtail, Giant [16, 19]: 0; Plant response rating, Foxtail, Giant [16, 20]: 20; Plant response rating, Kochia (kochia (Kochia scoparia) [17]; [19]): 0; Plant response rating, Kochia (kochia (Kochia scoparia) [17]; [20]): 0; Plant response rating, Ragweed [18, 19]: 0; Plant response rating, Ragweed [18, 20]: 0
C#CCOC(=O)c1c(Br)cccc1Oc1ncc(Cl)cn1 [Compound 108] | 0 | 80 | 60 | 0 | 0 | 10 | 20 | 40 | 20 | 50 | 0 | 0 | 0 | 0 | 0 | 10 | 20 | 40 | 0 | 0 | Corn plant response rating (corn (Zea mays); 31 g ai/ha): 10; Corn plant response rating (corn (Zea mays); 125 g ai/ha): 20; Ragweed plant response rating ([12]; 31 g ai/ha): 0; Ragweed plant response rating ([12]; 125 g ai/ha): 0; Plant response rating, Barnyardgrass [13, 19]: 10; Barnyardgrass plant response rating [13, 20]: 30; Plant response rating, Pigweed [14, 19]: 0; Plant response rating, Pigweed [14, 20]: 70; Plant response rating, Ryegrass, Italian [15, 19]: 0; Plant response rating, Ryegrass, Italian [15, 20]: 0; Plant response rating, Foxtail, Giant [16, 19]: 10; Plant response rating, Foxtail, Giant [16, 20]: 80; Plant response rating, Kochia (kochia (Kochia scoparia) [17]; [19]): 0; Plant response rating, Kochia (kochia (Kochia scoparia) [17]; [20]): 10; Plant response rating, Ragweed [18, 19]: 0; Plant response rating, Ragweed [18, 20]: 0
N#Cc1cccc(Oc2ncc(Cl)cn2)c1C(=O)CCCCC(F)(F)F [Compound 109] | 0 | 0 | 0 | 0 | 0 | 0 | 0 | 30 | 20 | 60 | 0 | 0 | 0 | 0 | 0 | 0 | 0 | 20 | 0 | 0 | Corn plant response rating (corn (Zea mays); 31 g ai/ha): 10; Corn plant response rating (corn (Zea mays); 125 g ai/ha): 20; Ragweed plant response rating ([12]; 31 g ai/ha): 0; Ragweed plant response rating ([12]; 125 g ai/ha): 20; Plant response rating, Barnyardgrass [13, 19]: 0; Barnyardgrass plant response rating [13, 20]: 20; Plant response rating, Pigweed [14, 19]: 0; Plant response rating, Pigweed [14, 20]: 60; Plant response rating, Ryegrass, Italian [15, 19]: 0; Plant response rating, Ryegrass, Italian [15, 20]: 0; Plant response rating, Foxtail, Giant [16, 19]: 0; Plant response rating, Foxtail, Giant [16, 20]: 40; Plant response rating, Kochia (kochia (Kochia scoparia) [17]; [19]): 0; Plant response rating, Kochia (kochia (Kochia scoparia) [17]; [20]): 0; Plant response rating, Ragweed [18, 19]: 0; Plant response rating, Ragweed [18, 20]: 0
N#Cc1cccc(Oc2ncc(Cl)cn2)c1C(=O)CCC(F)(F)C(F)(F)F [Compound 111] | 0 | 0 | 0 | 0 | 0 | 0 | 0 | 0 | 0 | 0 | 0 | 0 | 0 | 0 | 0 | 0 | 0 | 0 | 0 | 0 | Corn plant response rating (corn (Zea mays); 31 g ai/ha): 0; Corn plant response rating (corn (Zea mays); 125 g ai/ha): 0; Ragweed plant response rating ([12]; 31 g ai/ha): 0; Ragweed plant response rating ([12]; 125 g ai/ha): 0; Plant response rating, Barnyardgrass [13, 19]: 0; Plant response rating, Barnyardgrass [13, 20]: 0; Plant response rating, Pigweed [14, 19]: 0; Plant response rating, Pigweed [14, 20]: 0; Plant response rating, Ryegrass, Italian [15, 19]: 0; Plant response rating, Ryegrass, Italian [15, 20]: 0; Plant response rating, Foxtail, Giant [16, 19]: 0; Plant response rating, Foxtail, Giant [16, 20]: 0; Plant response rating, Kochia (kochia (Kochia scoparia) [17]; [19]): 0; Plant response rating, Kochia (kochia (Kochia scoparia) [17]; [20]): 0; Plant response rating, Ragweed [18, 19]: 0; Plant response rating, Ragweed [18, 20]: 0
